The source of these data is patent US9981963B2, “3-(1H-pyrazol-4-yl)-1H-pyrrolo[2,3-c]pyridine derivatives as NIK inhibitors” (Janssen Pharmaceutica NV, priority 2013, dated 2018).

Assay [1] deals with T1, Recombinant Human NF-kappaB-inducing Kinase (NIK/MAP3K14) (Homo sapiens (Human), UniProt Q99558). Description: Biological Assay A: inhibition of recombinant human NIK/MAP3K14 activity (MSD, MBP substrate). The note with it: 25 μM ATP, 10 nM NIK/MAP3K14, 1 h at 25° C.; averaged over all measurements on all batches; read-out: Biochemical (MSD MBP) IC50. The method, then:
Inhibition of Recombinant Human NF-kappaB-inducing Kinase (NIK/MAP3K14) Activity
Assay buffer was 50 mM Tris pH 7.5 containing 1 mM EGTA (ethylene glycol tetraacetic acid), 1 mM DTT (dithiothreitol), 0.1 mM Na3VO4, 5 mM MgCl2, 0.01% Tween® 20. Assays were carried out in 384 well Mesoscale high binding plates which had been coated with myelin basic protein (MBP) and blocked with bovine serum albumin to prevent non-specific protein binding. All compounds tested were dissolved in dimethyl sulfoxide (DMSO) and further dilutions were made in assay buffer. Final DMSO concentration was 1% (v/v) in assays. Incubations consisted of compound (1% DMSO in control and blank wells), 25 μM Adenosine-5′-triphosphate (ATP), and 10 nM NIK/MAP3K14 substituting enzyme with buffer in the blank wells. Incubations were carried out for 1 h at 25° C. and were followed by washing and sequential incubation with rabbit anti-phospho-MBP and anti-rabbit Ig Sulfotag antibody before reading bound Sulfotag on a Mesoscale Discovery. Signal obtained in the wells containing blank samples was subtracted from all other wells and IC50's were determined by fitting a sigmoidal curve to % inhibition of control versus Log10 compound concentration.

Assay [2] deals with T1, Recombinant Human NF-kappaB-inducing Kinase (NIK/MAP3K14). Briefly: Biological Assay A2: inhibition of auto-phosphorylation of recombinant human NIK/MAP3K14 (AlphaScreen). Type of assay: biochemical. The note with it: 25 microM ATP, 0.2 nM GST-tagged NIK/MAP3K14, 1 h at 25° C., averaged values, read-out: Alpha-Screen IC50. As to the method:
Inhibition of Auto-phosphorylation of Recombinant Human NF-kappaB-inducing Kinase (NIK/MAP3K14) Activity (AlphaScreen®)
NIK/MAP3K14 auto-phosphorylation activity was measured using the AlphaScreen® (αscreen) format (Perkin Elmer). All compounds tested were dissolved in dimethyl sulfoxide (DMSO) and further dilutions were made in assay buffer. Final DMSO concentration was 1% (v/v) in assays. Assay buffer was 50 mM Tris pH 7.5 containing 1 mM EGTA (ethylene glycol tetraacetic acid), 1 mM DTT (dithiothreitol), 0.1 mM Na3VO4, 5 mM MgCl2, 0.01% Tween® 20. Assays were carried out in 384 well Alphaplates (Perkin Elmer). Incubations consisted of compound, 25 microM Adenosine-5′-triphosphate (ATP), and 0.2 nM NIK/MAP3K14. Incubations were initiated by addition of GST-tagged NIK/MAP3K14 enzyme, carried out for 1 h at 25° C. and terminated by addition of stop buffer containing anti-phospho-IKK Ser176/180 antibody. Protein A Acceptor and Glutathione-Donor beads were added before reading using an EnVision® Multilabel Plate Reader (Perkin Elmer). Signal obtained in the wells containing blank samples was subtracted from all other wells and IC50's were determined by fitting a sigmoidal curve to % inhibition of control versus Log10 compound concentration.
(In general: In Alpha technology, singlet oxygen from a donor bead excites a nearby acceptor bead.)

Assay [3] has as its system P-IKKα levels in L363 cells. Description: Biological Assay B: effect of compounds on P-IKKα levels in L363 cells. Type of assay: cell-based. The following applies: Homo sapiens, L-363; L363 cells with BAFF, 2 hr treatment; averaged values; read-out: IKKα Cellular IC50. The method, then:
Effect of Compounds on P-IKKα Levels in L363 Cells
All compounds tested were dissolved in DMSO and further dilutions were made in culture medium. Final DMSO concentration was 1% (v/v) in cell assays. The human L363 cells (ATCC) were cultured in RPMI 1640 medium supplemented with GlutaMax and 10% fetal calf serum (PAA). Cells were routinely maintained at densities of 0.2×10^6 cells per ml-1×10^6 cells per ml at 37° C. in a humidified 5% CO2 atmosphere. Cells were passaged twice a week splitting back to obtain the low density. Cells were seeded in 96 well plates (Nunc 167008) at 2×10^6 per ml media in a volume of 75 μl per well plus 25 μl 1 μg/ml recombinant human B-cell activating factor (BAFF/BLyS/TNFSF13B). Seeded cells were incubated at 37° C. in a humidified 5% CO2 atmosphere for 24 hr. Drugs and/or solvents were added (20 μl) to a final volume of 120 μl. Following 2 hr treatment plates were removed from the incubator and cell lysis was achieved by the addition of 30 μl 5× lysis buffer followed by shaking on a plate shaker at 4° C. for 10 min. At the end of this incubation lysed cells were centrifuged at 800×g for 20 min at 4° C. and the lysate was assessed for P-IKKα levels by sandwich immuno-assay carried out in anti-rabbit antibody coated Mesoscale plates. Within an experiment, the results for each treatment were the mean of 2 replicate wells. For initial screening purposes, compounds were tested using an 8 point dilution curve (serial 1:3 dilutions). For each experiment, controls (containing MG132 and BAFF but no test drug) and a blank incubation (containing MG132 and BAFF and 10 μM ADS125117, a test concentration known to give full inhibition) were run in parallel. The blank incubation value was subtracted from all control and sample values. To determine the IC50 a sigmoidal curve was fitted to the plot of % inhibition of control P-IKKα levels versus Log10 compound concentration.

Assay [4] concerns JJN-3 cells. Description: Biological Assay C: antiproliferative activity on JJN-3 cells (CellTiter-Glo). The following applies: Homo sapiens, 72 hr of treatment, averaged values. Format: cell-based. The method, then: (§1) Determination of Antiproliferative Activity on LP-1, L-363 and JJN-3 Cells
(§2) All compounds tested were dissolved in DMSO and further dilutions were made in culture medium. Final DMSO concentration was 0.3% (v/v) in cell proliferation assays. Viability was assessed using CellTiter-Glo cell viability assay kit (Promega). The human LP-1, L-363 and JJN-3 cells (DSMZ) were cultured in RPMI 1640 medium supplemented with 2 mM L-glutamine, and 10% fetal calf serum (PAA). Cells were routinely kept as suspension cells at 37° C. in a humidified 5% CO2 atmosphere. Cells were passaged at a seeding density of 0.2×10^6/ml twice a week. Cells were seeded in black tissue culture treated 96-well plates (Perkin Elmer). Densities used for plating ranged from 2,000 to 6,000 cells per well in a total volume of 75 μl medium. After twenty four hours, drugs and/or solvents were added (25 μl) to a final volume of 100 μl. Following 72 hr of treatment plates were removed from the incubator and allowed to equilibrate to room temperature for approx 10 min. 100 μl CellTiter-Glo reagent was added to each well that was then covered (Perkin Elmer Topseal) and shaken on plate shaker for 10 min. Luminescence was measured on a HTS Topcount (Perkin Elmer). Within an experiment, the results for each treatment were the mean of 2 replicate wells. For initial screening purposes, compounds were tested using a 9 point dilution curve (serial 1:3 dilutions). For each experiment, controls (containing no drug) and a blank incubation (containing cells read at the time of compound addition) were run in parallel. The blank value was subtracted from all control and sample values. For each sample, the mean value for cell growth (in relative light units) was expressed as a percentage of the mean value for cell growth of the control.
(In ATP-based viability assays light output follows the ATP content of the culture.)

Assay [5] relates to L-363 cells. Briefly: Biological Assay C: antiproliferative activity on L-363 cells (CellTiter-Glo). Format: cell-based. The note with it: Homo sapiens, 72 hr of treatment, averaged values. The method, then:
as §1, §2

The test system of assay [6] is LP-1 cells. Briefly: Biological Assay C: antiproliferative activity on LP-1 cells (CellTiter-Glo). Format: cell-based. The following applies: Homo sapiens, 72 hr of treatment, averaged values. As to the method: as §1, §2

T1 sequence (Q99558 whole entry): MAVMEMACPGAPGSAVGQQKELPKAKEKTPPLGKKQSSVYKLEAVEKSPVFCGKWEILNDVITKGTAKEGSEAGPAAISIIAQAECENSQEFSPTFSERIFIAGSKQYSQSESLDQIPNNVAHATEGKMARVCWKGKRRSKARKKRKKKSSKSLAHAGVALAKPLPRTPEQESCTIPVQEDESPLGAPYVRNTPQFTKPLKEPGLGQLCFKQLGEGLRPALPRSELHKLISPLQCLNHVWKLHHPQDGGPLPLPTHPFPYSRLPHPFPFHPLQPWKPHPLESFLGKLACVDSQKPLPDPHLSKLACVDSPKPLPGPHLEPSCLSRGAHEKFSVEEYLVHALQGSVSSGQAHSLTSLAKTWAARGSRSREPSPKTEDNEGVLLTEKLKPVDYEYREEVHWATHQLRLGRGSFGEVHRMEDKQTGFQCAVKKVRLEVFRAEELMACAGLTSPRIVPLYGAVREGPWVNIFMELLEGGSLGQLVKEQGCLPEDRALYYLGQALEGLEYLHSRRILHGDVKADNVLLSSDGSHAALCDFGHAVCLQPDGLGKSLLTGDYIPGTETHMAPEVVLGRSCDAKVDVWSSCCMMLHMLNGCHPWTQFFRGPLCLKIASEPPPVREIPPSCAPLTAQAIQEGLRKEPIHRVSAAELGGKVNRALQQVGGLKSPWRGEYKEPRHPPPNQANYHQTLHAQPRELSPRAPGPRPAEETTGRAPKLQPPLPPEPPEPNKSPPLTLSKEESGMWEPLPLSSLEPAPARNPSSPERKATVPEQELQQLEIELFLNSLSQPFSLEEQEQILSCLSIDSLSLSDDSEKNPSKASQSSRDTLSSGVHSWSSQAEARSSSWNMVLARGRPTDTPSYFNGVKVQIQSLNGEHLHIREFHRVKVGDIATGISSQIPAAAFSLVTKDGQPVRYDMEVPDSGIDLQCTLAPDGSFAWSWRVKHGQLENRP

A word on the IC50: it is the midpoint of a concentration-inhibition curve. One may read the EC50 as the concentration needed to bring the measured effect to its halfway point. As for `CC(C)(O)C#Cc1cc2c(-c3cn[nH]c3)cn(CCC(C)(C)O)c2cn1` [Compound 20], the half-inhibitory concentration (IC50) was 29 nM in assay [1], 30 nM in assay [2] and 187 nM in assay [3]. In addition, the results for the EC50 in assay [4], in assay [5] and in assay [6] were 2650 nM, 2260 nM and over 30000 nM, respectively.
In the case of `CC(C)Cn1cc(-c2cn[nH]c2)c2cc(C#CC(C)(C)O)ncc21` [Compound 21], the IC50 in assay [1] amounted to 55 nM; in assay [2], 25 nM; in assay [3], 119 nM. Also, the concentration giving a half-maximal response (EC50) in assay [4] was found to be 629 nM; in assay [5], 427 nM; in assay [6] it was 1120 nM.
Consider `CC(C)(O)C#Cc1cc2c(-c3cn[nH]c3)cn(Cc3ccccc3)c2cn1` [Compound 22], for which the IC50 stood at 224 nM in assay [1], 232 nM in assay [2] and 1770 nM in assay [3]. Further, the concentration giving a half-maximal response (EC50) in assay [4] stood at 6080 nM; in assay [5] it was 5530 nM; in assay [6], 5230 nM.
Turning to `CCCC(C)n1cc(-c2cn[nH]c2)c2cc(C#CC(C)(C)O)ncc21` (stereo not drawn) [Compound 23], the IC50 amounted to 57 nM in assay [1], 43 nM in assay [2] and 302 nM in assay [3]. In addition, the 50% effective concentration (EC50) in assay [4] came out at 848 nM; in assay [5], 625 nM; in assay [6], 1080 nM.
In the case of `CCC(CC)n1cc(-c2cn[nH]c2)c2cc(C#CC(C)(C)O)ncc21` [Compound 24], the IC50 is 48 nM in assay [1], 65 nM in assay [2] and 191 nM in assay [3]. In addition, the 50% effective concentration (EC50) in assay [4] was 744 nM; in assay [5], 519 nM; in assay [6], 647 nM.
Take `CC(C)(O)C#Cc1cc2c(-c3cn[nH]c3)cn(S(C)(=O)=O)c2cn1` [Compound 25]: the IC50 was 14 nM in assay [1], 55 nM in assay [2] and 460 nM in assay [3]. The concentration giving a half-maximal response (EC50) in assay [4] is 1900 nM; in assay [5], 2260 nM; in assay [6], 4980 nM.
On to `CCn1cc(-c2c[nH]nc2C)c2cc(C#CC(C)(C)O)ncc21` [Compound 30], for which the IC50 in assay [1] is 29 nM; in assay [2], 23 nM; in assay [3], 149 nM. The values for the 50% effective concentration (EC50) in assay [4], in assay [5] and in assay [6] were 1690 nM, 2410 nM and 8230 nM, respectively.
Regarding `CCn1cc(-c2c[nH]nc2C#N)c2cc(C#CC(C)(C)O)ncc21` [Compound 31], the IC50 in assay [1] worked out at 9 nM; in assay [2] it was 35 nM; in assay [3], 214 nM. Also, the EC50 in assay [4] stood at 2380 nM; in assay [5], 3940 nM; in assay [6], 4900 nM.
For the compound `CC(C)(O)C#Cc1cc2c(-c3c[nH]nc3C#N)cn(CC(C)(C)O)c2cn1` [Compound 32], the figures for the IC50 in assay [1], in assay [2] and in assay [3] were 68 nM, 44 nM and 1010 nM, respectively. In addition, the EC50 is 5670 nM in assay [4], 22600 nM in assay [5] and over 30000 nM in assay [6].
Turning to `CN1CC(n2cc(-c3cn[nH]c3)c3cc(C#CC(C)(C)O)ncc32)C1` [Compound 34], the results for the IC50 in assay [1], in assay [2] and in assay [3] were 76 nM, 171 nM and 377 nM, respectively. The figures for the EC50 in assay [4], in assay [5] and in assay [6] were 3660 nM, 2200 nM and over 30000 nM, respectively.
